Reference: patent US7456153B2, “Compounds and methods for modulating functions of classical cadherins” (Adherex Technologies Inc., priority 2002, dated 2008)

Key:
[1] = biological target: Fc-E-cadherin chimeric protein; test: BIAcore binding of peptide modulating agents to captured Fc-E-cadherin; conditions: absence of calcium
Protocol: The binding of representative peptide modulating agents to Fc-E-cadherin chimeric protein in either the presence (3 mM CaCl2) or absence of calcium was assessed using a BIAcore X™ Biosensor (Pharmacia Ltd., Sweden). Protein A was immobilized on the flow cells of a CM 5 sensor chip using a standard amine coupling method. The surfaces were activated with a 7 min injection of NHS/EDC, followed by a 7 min injection of protein A in 10 mM acetate pH 5.0 at a concentration of 50 ug/mL and blocked with a 7 min injection of […] ethanolamine, pH 8.2. […] Next, Fc-E-cadherin was injected over the protein A surface to be captured on the sensor chip.
To test compound binding to these surfaces, candidate modulating agents were injected in a three-fold dilution series over the Fc-E-cadherin-coated surfaces using six concentrations and each concentration was repeated twice.

[2] = test system: SKOV3 human ovarian cancer cells; test: Disruption of confluent SKOV3 monolayers (microscopic examination); type: cell-based; conditions: 1 mg/ml of culture medium, 24 hours
Protocol: We investigated the effects of the linear peptide ADH254 (H-DWVIPP-NH2; classical cadherin derived peptide) on confluent cultures of SKOV3 cells. SKOV3 human ovarian cancer cells express N-cadherin. The cells were cultured in minimum essential medium (MEM) supplemented with 10% fetal calf serum, non-essential amino acids, fungizone, penicillin-streptomycin, and gentamicin in a humidified atmosphere (5% CO2) at 37° C. All culture reagents were purchased from GIBCO (Burlington, ON). ADH254 (1 mg/ml of culture medium) was added to confluent cultures of SKOV3 cells. After 24 hours of treatment, the cells were fixed with 4% paraformaldehyde, followed by 3 washes with phosphate buffered saline, and then stained with hematoxylin. Control cultures were grown in the absence of peptide.
The peptide caused the SKOV3 cells to detach from one another and adopt an elongated, fibroblast-like morphology. These observations indicate that Trp containing peptides can disrupt cell adhesion.

| Substance | KD Fc-ECAD no Ca++ [1] | disruption of confluent SKOV3 monolayers [2] |
| --- | --- | --- |
| DWVIAP [H-DWVIAP-NH2] | no binding |  |
| DWVIPA [H-DWVIPA-NH2] | no binding |  |
| DWVIPP [H-DWVIPP-NH2] | no binding | caused disruption of the confluent SKOV3 monolayers |

More lines, main results first:

| KD Fc-ECAD no Ca++ [1] | Substance | disruption of confluent SKOV3 monolayers [2] |
| --- | --- | --- |
| no binding | AWVIPP [H-AWVIPP-NH2] |  |
| no binding | DWVAPP [H-DWVAPP-NH2] |  |
| no binding | PWVIPP [H-PWVIPP-NH2] |  |
